The record followed here is patent US12617759B2, “Modifier of four-membered ring derivative, preparation method and application thereof” (Shanghai Hansoh Biomedical Co., Ltd., priority 2019, dated 2026).

Series [1] addresses T1, Human Dopamine D3 Receptor membrane (Homo sapiens, UniProt P35462).
T1 construct: purchased PerkinElmer ES-173-M400UA
As to the kind of experiment: Radioligand binding assay, dopamine D3 receptor ([3H]-methylspiperone). On the procedure: The objective of this test example is to determine the affinity of the compounds for dopamine D3 receptor.
(§1) 0.5 to 5 μL of the test compounds (0.005 nM to 100 nM, 10 concentrations in total) and 100 μL of buffer were added to a 96-well assay plate. 0.5 μL of cell membrane and 300 μL of buffer were added to each well. [^3H]-methylspiperone was added to the buffer, and the plate was incubated at 27° C. for 30 min. The […]-96 GF/B filter plate pre-incubated with 0.5% PEI for 1 h was washed twice with the buffer (1 mL/well). The cell membrane suspension was added to the […]-96 GF/B filter plate, washed 4 times, and incubated at 55° C. for 10 min. 40 μL of ULTIMA GOLD was added to each well, and liquid scintillation counting was carried out.
(§2) The CPM (Counts per minute) values were determined by TopCount. […] The 10 concentrations of the compound were from 100 nM to 0.005 nM after 3-fold dilution of the reaction system. The percent inhibition rate and ten-point concentration data were fitted to the parametric nonlinear logistic equation by using GraphPad prism to calculate the IC50 values of the compound.

The target in series [2] is T2, 5-HT2A receptor (Homo sapiens, UniProt P28223). As to the kind of experiment: Radioligand binding assay, 5-HT2A receptor ([3H]-Ketanserin). The arrangement: purchased PerkinElmer. Particulars: human 5-HT2A receptor membrane, read-out: 5HT-2A Binding IC50. As to the method:
The objective of this test example is to determine the affinity of the compounds for 5-HT2A receptor.
as §1, with “[^3H]-Ketanserin” for “[^3H]-methylspiperone”
as §2

In series [3] the target is T2, 5-HT2A receptor. Put plainly: Calcium ion mobility in cells stably expressing 5-HT2A receptors (Flp-In-CHO-5HT2A, FLIPR). The arrangement: expressed in transfected cells. As to conditions: Flp-In-CHO-5HT2A stable pool, inhibition of 5HT response. The series is classed as cell-based. On the procedure: To determine the inhibitory effect of the compounds on 5-HT2A receptor.
3. […] Probenecid and BSA were added fresh on the day of the experiment. […] 4. Experimental Data Processing Method:
The calcium signal values were determined by FLIPR. The calculated output for each sampling time point in the experiment was the ratio of the 340/510 nm wavelength signals to 380/510 nm wavelength signals. The maximum minus minimum calculation was derived from the ratio signal curve. The percent inhibition rate and ten-point concentration data were fitted to the parametric nonlinear logistic equation by using GraphPad prism to calculate the IC50 values of the compound.

For series [4], the target named is T3, D3 receptor (Homo sapiens, UniProt P35462).
T3 construct: expressed in transfected cells; host or cells: CHO (CHO-D3, G418 selection)
T3 sequence (P35462 whole entry): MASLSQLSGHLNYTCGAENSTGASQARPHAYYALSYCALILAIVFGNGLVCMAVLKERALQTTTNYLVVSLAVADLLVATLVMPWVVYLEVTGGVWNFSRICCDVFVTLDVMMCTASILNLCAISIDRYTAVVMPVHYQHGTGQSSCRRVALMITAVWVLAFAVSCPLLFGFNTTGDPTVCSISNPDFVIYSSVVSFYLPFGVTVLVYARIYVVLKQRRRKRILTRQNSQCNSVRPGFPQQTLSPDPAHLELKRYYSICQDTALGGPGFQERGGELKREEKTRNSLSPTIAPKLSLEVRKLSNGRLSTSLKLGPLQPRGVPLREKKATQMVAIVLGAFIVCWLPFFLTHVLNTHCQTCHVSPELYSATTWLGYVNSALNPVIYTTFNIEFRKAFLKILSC
As to the kind of experiment: cAMP content in cells stably expressing D3 receptors (CHO-D3). Type of series: cell-based. Particulars: forskolin, agonistic activity. As to the method: To determine the activation effect of the compounds on D3 receptor.
3. Experimental Method: • 1. Preparation of the buffer: 1*HBSS+20 mM HEPES+0.1% BSA+500 μM IBMX. • Complete medium: Ham's F12K+10% fetal bovine serum+1*penicillin-streptomycin+400 µg/mL G418. • 2. CHO-D3 cells were cultured in the complete medium at 37° C., 5% C02. After TrypLE digestion, the cells were resuspended in the experimental buffer, and seeded into a 384-well cell culture plate at a seeding density of 8000 cells per well. • 3. The experimental buffer (1*HBSS, 0.1% BSA, 20 mM HEPES and 500 μM IBMX) was prepared. The compound was diluted with the buffer. 2.5 μL of the compound solution was added to each well, and the plate was incubated at 37° C. for 10 minutes. The forskolin was diluted to 8 μM (8*) with the experimental buffer. 2.5 μL of the diluted 8*forskolin was added, and the plate was incubated at 37° C. for 30 minutes. cAMP-d2 and Anti-cAMP-Eu^3+ were thawed, and diluted by 20-fold with the lysis buffer. 10 μL of cAMP-d2 was added to the experimental well, followed by the addition of 10 μL of Anti-cAMP-Eu^3+. The reaction plate was centrifuged at 200 g for 30 s at room temperature, and left to stand at 25° C. for 1 h. Data was collected using Envision. 4. […]

A short description of series [5]: Stability in human liver microsome in vitro. Type of series: in vitro ADME. As to conditions: for half-life at 1 μM / microsomal CLint at 1 μM: human liver microsomes, pH 7.4, 1 μM compound, NADPH/UDPGA; for half-life at 1 μM: read-out: Half life (t1/2); for microsomal CLint at 1 μM: read-out: Intrinsic clearance rate (CLint). On the procedure:
(§3) To evaluate the metabolic stability of the compounds of the present invention in liver microsome in vitro.
(§4) Formulation of the working solution of the compound: 2 μL of the stock solution of the compound was added to 998 μL of phosphate buffer, and the final concentration was 20 μM.
(§5) 78.1 μL of 20 mg/mL microsome was diluted to 2.5 mL with 100 mM phosphate buffer and mixed well, and the final concentration was 0.625 mg/mL.
(§6) 33.3 mg of NADPH and 25.8 mg of UDPGA were weighed respectively, followed by the addition of 2 mL of 100 mM phosphate buffer. The final concentrations were 20 mM.
(§7) 1 mg of Alamethicin was weighed, to which 200 μL of DMSO was added to obtain a 5 mg/mL solution. 10 μL of this solution was added to 990 μL of phosphate buffer (pH 7.4), and the final concentration was 50 μg/mL.
(§8) 400 μL of the formulated liver microsome, 25 μL of the working solution of the compound (10 μM) and 25 μL of Alamethicin (50 μg/mL) were added to a 96-well plate successively, which was then pre-incubated at 37° C. for 10 min. 50 μL of the formulated NADPH/UDPGA was added to initiate the reaction, and the plate was incubated at 37° C. The total volume of the reaction system was 500 μL. The final contents of the components are as follows:
(§9) […] The resulting sample was centrifuged at 4000 g for 10 min, and the supernatant was collected for LC-MS/MS analysis.
For orientation: Microsomes from liver hold many membrane-bound enzymes, among them those of drug oxidation.

Series [6] in a line: Stability in rat liver microsome in vitro. The series is classed as in vitro ADME, SD rat. As to conditions: for half-life at 1 μM / microsomal CLint at 1 μM: SD, rat liver microsomes, pH 7.4, 1 μM compound, NADPH/UDPGA; for half-life at 1 μM: read-out: Half life (t1/2); for microsomal CLint at 1 μM: read-out: Intrinsic clearance rate (CLint). On the procedure:
as §3, §4, §5, §6, §7, §8, §9

Series [7] in a line: Stability in dog liver microsome in vitro. The series is classed as in vitro ADME. Particulars: for half-life at 1 μM / microsomal CLint at 1 μM: dog liver microsomes, pH 7.4, 1 μM compound, NADPH/UDPGA; for half-life at 1 μM: read-out: Half life (t1/2); for microsomal CLint at 1 μM: read-out: Intrinsic clearance rate (CLint). As to the method:
as §3, §4, §5, §6, §7, §8, §9

The structures appear in SMILES notation.

A word on the IC50: it is the concentration that inhibits the measured activity by half. For orientation: EC50 means the concentration at which the effect is half-maximal. A low value points to an effect from little substance.

T2 sequence (P28223 whole entry): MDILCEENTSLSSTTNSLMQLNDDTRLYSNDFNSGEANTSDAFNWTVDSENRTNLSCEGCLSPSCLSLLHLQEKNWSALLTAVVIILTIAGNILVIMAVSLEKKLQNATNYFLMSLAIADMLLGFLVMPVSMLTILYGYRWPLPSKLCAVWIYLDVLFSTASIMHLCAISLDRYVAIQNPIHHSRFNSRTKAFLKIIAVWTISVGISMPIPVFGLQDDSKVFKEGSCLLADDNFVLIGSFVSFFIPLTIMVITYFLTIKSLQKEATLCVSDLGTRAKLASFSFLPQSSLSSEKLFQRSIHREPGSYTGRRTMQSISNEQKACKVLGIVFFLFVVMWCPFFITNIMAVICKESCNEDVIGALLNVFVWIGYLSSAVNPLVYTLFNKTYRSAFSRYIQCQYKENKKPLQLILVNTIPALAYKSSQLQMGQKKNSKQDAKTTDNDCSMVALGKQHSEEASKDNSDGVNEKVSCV
T1 sequence (P35462 whole entry): as the sequence (P35462 whole entry) above

With `Cc1ncc(C(=O)N[C@H]2C[C@H](CCN3CCN(c4cccc(Cl)c4Cl)CC3)C2)o1` [Example 24A], the IC50 in series [1] was 0.33 nM; in series [2] it was 1.8 nM; in series [3], 4.28 nM. This compound gave an EC50 in series [4] of 1.7 nM.

On to `O=C(N[C@H]1C[C@H](CCN2CCN(c3cccc(Cl)c3Cl)CC2)C1)C1(O)CC1` [Example 13A, N-(Trans-3-(2-(4-(2,3-dichlorophenyl)piperazin-1-yl)ethyl)cyclobutyl)-1-hydroxycyclopropane-1-carboxamide], for which, in series [5], the “Remaining (%, 120 min)” value is on record as 53.3%; the half-life at 1 μM is 2.31 h; the microsomal CLint at 1 μM was found to be 10 µL/min/mg.

As to `Cc1cc(C(=O)N[C@H]2C[C@H](CCN3CCN(c4cccc(Cl)c4Cl)CC3)C2)on1` [Example 22A], the IC50 in series [1] was determined as 0.34 nM; in series [2], 1.35 nM; in series [3], 4.37 nM. In series [4], the EC50 stood at 0.9 nM.

For `CN(C)C(=O)N[C@H]1CC[C@H](CCN2CCN(c3cccc(Cl)c3Cl)CC2)CC1` [Cariprazine, reference compound], the “Remaining (%, 120 min)” value in series [6] was found to be 19.1%; in series [5], 34.4%; in series [7] it was 21.4%. Also, the half-life at 1 μM is 0.878 h in series [6], 1.29 h in series [5] and 0.835 h in series [7]. Besides, the microsomal CLint at 1 μM came out at 26.3 µL/min/mg in series [6], 18 µL/min/mg in series [5] and 27.7 µL/min/mg in series [7].

For the compound `CC(C)(O)CC(=O)NC1CC(CCN2CCN(c3cccc(Cl)c3Cl)CC2)C1` (stereo not drawn) [Example 15, N-(3-(2-(4-(2,3-Dichlorophenyl)piperazin-1-yl)ethyl)cyclobutyl)-3-hydroxy-3-methylbutanamide], in series [5], the “Remaining (%, 120 min)” value came to 79.5%; the half-life at 1 μM was 3.16 h; the microsomal CLint at 1 μM turned out to be 18.3 µL/min/mg.

For the compound `O=C(N[C@H]1C[C@H](CCN2CCN(c3cccc(Cl)c3Cl)CC2)C1)c1ncco1` [Example 20A, N-(Trans-3-(2-(4-(2,3-dichlorophenyl)piperazin-1-yl)ethyl)cyclobutyl)oxazole-2-carboxamide], the “Remaining (%, 120 min)” value in series [6] stood at 25.4%; in series [5], 42.8%; in series [7], 29.2%. Also, the half-life at 1 μM in series [6] turned out to be 1 h; in series [5], 1.77 h; in series [7], 1.18 h. For the same compound, the microsomal CLint at 1 μM came out at 23.1 µL/min/mg in series [6], 13.1 µL/min/mg in series [5] and 19.6 µL/min/mg in series [7].

As to `CC(C)(O)C(=O)N[C@H]1C[C@H](CCN2CCN(c3cccc(Cl)c3Cl)CC2)C1` [Example 11A], the IC50 in series [1] was determined as 0.95 nM; in series [2], 41.5 nM; in series [3] it was 39 nM. The same compound came in with an EC50 in series [4] of 0.4 nM.

As to `O=C(NC1CC(CCN2CCN(c3cccc(Cl)c3Cl)CC2)C1)C1(O)CC1` (stereo not drawn) [Example 13, N-(3-(2-(4-(2,3-Dichlorophenyl)piperazin-1-yl)ethyl)cyclobutyl)-1-hydroxycyclopropane-1-carboxamide], in series [5], the “Remaining (%, 120 min)” value is 63.0%; the half-life at 1 μM amounted to 1.55 h; the microsomal CLint at 1 μM is 37.2 µL/min/mg.

On to `CN(C)C(=O)NC1CC(CCN2CCN(c3cccc4sccc34)CC2)C1` (stereo not drawn) [Example 6, 3-(3-(2-(4-(Benzo[b]thiophen-4-yl)piperazin-1-yl)ethyl)cyclobutyl)-1,1-dimethylurea], for which, in series [5], the “Remaining (%, 120 min)” value amounted to 61.2%; the half-life at 1 μM was 1.27 h; the microsomal CLint at 1 μM came out at 45.4 µL/min/mg.
